One experiment has as its target VHL Elongin B/C complex (Homo sapiens (Human), UniProt P40337). Description: Fluorescence Polarization (FP) VHL Binding Assay. Conditions: VHL binding, FP assay; geometric mean where more than one measurement. The procedure, abridged:
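FP tracer competition using His6-tagged human VHL (E55-D213) co-expressed with Elongin B and C in E. coli, final 2.64 nM, with TAMRA-labelled VHL ligand probe at 1.67 nM final. Buffer 50 mM Tris pH 8.0, 120 mM NaCl, 0.005% NP-40, 1% DMSO; 1 h at room temperature. Pre-assay compound/protein signal subtracted; IC50 from four-parameter fit.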
For orientation: Fluorescence polarisation rises when a labelled molecule tumbles more slowly, as on binding a larger partner.

A further experiment has as its target BRD4 (Homo sapiens (Human), UniProt O60885). Description: BRD4 degradation assay in PC3 (Steap-1) prostate cancer cells, high content fluorescence imaging. The class given is cell-based. Particulars: PC3 (Steap-1) cells, 4 hours; for DC50: BRD4 immunofluorescence, read-out: PC3 (Steap-1) EC50; for PC3 (Steap-1) Sinf (%): maximum degradation, percent change in protein level (-100% = complete loss). As to the method: PC3 (Steap-1) prostate cancer cells: PC3 (Steap-1) prostate cancer cells (PC3 cells overexpressing the surface protein Steap-1) were seeded on day 1 at a density of 200,000 cells/mL in 45 μl/well in cell plates in a 384 well Greiner/Perkin Elmer Cell Carrier TC Treated plate (part #6007430) in Assay Medium (RPMI, 10% FBS, 2 mM Glutamax). Cells were incubated overnight at 37° C. degrees. On day 2, compounds were serially diluted 3-fold in DMSO spanning the concentrations 10 mM to 8.6 nM, in 384 well clear polypropylene plates (Greiner Cat #781201). DMSO and 10 mM of a control PROTAC (dBET1, as described in WO 2017/024317, p. 235, structure below) (control compound) were added to designated wells. Compounds and controls were diluted 50-fold (2 μl of DMSO stock into 98 μl) into Assay Medium. 5 μl of the diluted compounds was transferred to the cell plates. The final top concentration of the test compounds in the cell plates was 20 μM. Cell plates were incubated at 37° C., for 4 hours. Fixation and permeabilization were carried out using a Biotek EL406 plate washer and dispenser as follows. Cells were fixed by addition of 15 μL of 16% paraformaldehyde (Electron Microscopy Sciences #15710-S) directly to the 50 μL cell culture medium in each well using the peristaltic pump 5 μL cassette on a Biotek EL406 (final concentration of formaldehyde was 3.7% w/v). Samples were incubated 30 minutes. Well contents were aspirated and 50 μL/well of Phosphate Buffered Saline (PBS) containing 0.5% w/v bovine serum albumen, 0.5% v/v Triton X-100 (Antibody Dilution Buffer) was added to each well. Samples were incubated for 30 minutes. Well contents were aspirated and washed 3 times with 100 μL/well of PBS.
For both the PC3 and EOL-1 cell assays, immunofluorescence staining of BRD4 was carried out using a Biotek EL406 plate washer and dispenser as follows. The well supernatant was aspirated from the wells and 25 μL/well of rabbit mAb Anti-BRD4 [EPR5150(2)] abeam 128874 diluted 1:500 in Antibody Dilution Buffer is dispensed. Samples were incubated for 2 hours at room temperature. Samples were washed 4 times with 100 μL/well of PBS. 25 μL/well of secondary antibody solution (Goat Anti-Rabbit IgG, DyLight 488 Conjugated Highly Cross-adsorbed #35553 1:1000) diluted 1:1000 and Hoechst 33342 1 μg/ml diluted in Antibody Dilution Buffer) were dispensed into each well. 16 wells of the plate, which were designated as ‘no primary antibody” wells, received only Antibody Dilution Buffer (without anti-BRD4 antibody). Samples were incubated for 2 hours at room temperature. Samples were washed 3 times with 100 μL/well of PBS using a Biotek EL406. Quantitative fluorescence imaging of BRD4 was carried out using a Phenix (Perkin Elmer). Fluorescence images of the samples (Channel 1: Hoechst33342 (DNA stain); Channel 2: 488 nm (BRD4 stain)) were acquired. Channel 1 (DNA stain) was used to define the “Region of Interest” (ROI) nuclear region. Measurements of BRD4 average immunofluorescence intensity within the ROI (nuclear region), were made on a per cell basis and averaged over all the measured cells. Data analysis was carried out using Genedata Screener Software, with DMSO and “no primary antibody” samples being used to define the 0% and 100% changes in BRD4. The “Robust Fit” method was used to define the inflexion point of curve (EC50) and the plateau of the maximal effect (Sinf). The Sinf value reports degradation as percent change in protein level, so complete loss of the protein target is −100%. […]

Sequence of VHL Elongin B/C complex (P40337 whole entry, looked up): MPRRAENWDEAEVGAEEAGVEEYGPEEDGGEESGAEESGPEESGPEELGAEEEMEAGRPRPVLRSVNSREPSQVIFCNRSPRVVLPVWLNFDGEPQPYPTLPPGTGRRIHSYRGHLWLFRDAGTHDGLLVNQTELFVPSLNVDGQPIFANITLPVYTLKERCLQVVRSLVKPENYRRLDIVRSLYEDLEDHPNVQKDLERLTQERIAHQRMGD
Sequence of VHL Elongin B/C complex (Q15370 whole entry partner, looked up): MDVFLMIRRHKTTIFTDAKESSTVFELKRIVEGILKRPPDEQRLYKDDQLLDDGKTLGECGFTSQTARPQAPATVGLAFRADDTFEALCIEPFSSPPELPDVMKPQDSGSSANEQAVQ
Sequence of VHL Elongin B/C complex (Q15369 whole entry partner, looked up): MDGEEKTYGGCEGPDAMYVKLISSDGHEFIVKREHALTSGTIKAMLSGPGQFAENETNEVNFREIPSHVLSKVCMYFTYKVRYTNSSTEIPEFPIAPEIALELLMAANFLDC

At VHL Elongin B/C complex, `Cc1ncsc1-c1ccc([C@]2(C)NC(C3C[C@@H](O)CN3C(=O)C(c3cc(OCCCCCNC(=O)c4cc5c(cc4CS(C)(=O)=O)-c4cn(C)c(=O)c6[nH]cc(c46)CN5c4ncc(F)cc4F)no3)C(C)C)=NC2=O)cc1` (single isomer, unassigned) [Example 1001.3] displayed a 50% inhibitory concentration (IC50) above 100 µM. At BRD4, the DC50 was 0.14 µM and the “PC3 (Steap-1) Sinf (%)” value was −29.0%.

In the case of `Cc1ncsc1-c1ccc([C@]2(C)NC(C3C[C@@H](O)CN3C(=O)C(c3cc(OCCCCCNC(=O)c4cc5c(cc4CS(C)(=O)=O)-c4cn(C)c(=O)c6[nH]cc(c46)CN5c4ncc(F)cc4F)no3)C(C)C)=NC2=O)cc1` (single isomer, unassigned) [Example 1001.2], the half-inhibitory concentration (IC50) on VHL Elongin B/C complex was found to be 0.795 µM. For the same molecule, at BRD4, the DC50 was determined as 0.0033 µM and the “PC3 (Steap-1) Sinf (%)” value is −97.2%.

`Cc1ncsc1-c1ccc([C@]2(C)NC(C3C[C@@H](O)CN3C(=O)C(c3cc(OCCCCCNC(=O)c4cc5c(cc4CS(C)(=O)=O)-c4cn(C)c(=O)c6[nH]cc(c46)CN5c4ncc(F)cc4F)no3)C(C)C)=NC2=O)cc1` (single isomer, unassigned) [Example 1001.1] registered a 50% inhibitory concentration (IC50) on VHL Elongin B/C complex of 16.9 µM. Further, on BRD4, the DC50 was above 20 µM.

Molecule `Cc1ncsc1-c1ccc([C@]2(C)NC(C3C[C@@H](O)CN3C(=O)[C@@H](NC(=O)CCCCCCCCCCNC(=O)c3cc4c(cc3CS(C)(=O)=O)-c3cn(C)c(=O)c5[nH]cc(c35)CN4c3ncc(F)cc3F)C(C)(C)C)=NC2=O)cc1` (single isomer, unassigned) [Example 1005.1] had a half-maximal inhibitory concentration (IC50) at VHL Elongin B/C complex of 255 µM.

One may read the IC50 as the midpoint of a concentration-inhibition curve. Low readings indicate greater potency, high ones weaker potency.
